The assay is described as follows: Drop-diffusion assay of antibacterial activity. Format: cell-based.

Ends that are not written are not given here.

For “ATCDLLSPFKVGHAACAAHCIARGKRSGWCDKRAVCNCRK (also: bicyclic or more (positions not given here)) [ID7, DLP4 derivative changed at a conservative site]”, the antibacterial activity entry is “no antibacterial activity”.

These data come from paper PMC7291858, “An Enhanced Variant Designed From DLP4 Cationic Peptide Against Staphylococcus aureus CVCC 546” (Frontiers in Microbiology, 2020).
